Measured values: paper PMC7167990, “Therapeutic Effects of Atranorin towards the Proliferation of Babesia and Theileria Parasites” (Pathogens, 2020)
“And” between values parts separate entries of the source, which are not always exact repeats. Identical values can stand only once.

How the values were obtained:
[1] = system: Plasmodium species; parameters: method as in earlier work; details: ATR combined with quinine; cited from earlier work
[2] = system: bovine RBCs (B. divergens); experiment: Impact of ATR pretreatment of bovine RBCs on later parasite proliferation; format: cell-based; details: 400 µM ATR for 3 and 6 h, then B. divergens subculture
Procedure: (§1) Prior to parasite subculture, a concentration of 400 µM of ATR was mixed with fresh bovine and equine RBCs and incubated at a humidified incubator for 3 and 6 h. Afterward, the pretreated-RBCs were mixed with B. divergens and T. equi infected RBCs (iRBCs) after washing thrice with PBS to achieve 1% parasitemia. Thereafter, using a 24-well plate, an aliquot of iRBCs (100 μL) was mixed with culture media (900 μL); the control RBCs were left untreated. To monitor the parasitemia and any side effects due to the pretreatment, Giemsa-stained smears were prepared every 24 h for four days.

[3] = system: B. bovis; experiment: Parasite viability test in vitro (regrowth after drug withdrawal, microscopy); format: cell-based; parameters: key: a positive (+) indicates parasites regrowth; a negative (–) shows the parasites total clearance after drug pressure withdrawal using microscopy assay; details: 4 days treatment, then drug-free culture
Procedure: (§2) The viability studies of ATR-treated parasites were monitored via microscopy as reported elsewhere. In a 96-well microtiter plate, an aliquot of 1% parasitemia (10 µL) of iRBCs was cultivated with 90 µL of respective media containing various concentrations of ATR and DA for 4 successive days with changing media daily. […] On the fifth day, a mixture of iRBCs (3 µL) from each well and fresh equine or bovine RBCs (7 µL) was transferred to another plate, cultured in a medium free from drug and then left for an additional six days. The total parasite clearance was recorded as negative, while the relapse of parasites was recorded as positive.

[4] = system: T. equi; experiment: as above; format: cell-based; parameters: key: a positive (+) indicates parasites regrowth; a negative (–) shows the parasites total clearance after drug pressure withdrawal using microscopy assay; details: 4 days treatment, then drug-free culture
Procedure: as §2

[5] = system: B. bigemina; experiment: as above; format: cell-based; parameters: key: a positive (+) indicates parasites regrowth; a negative (–) shows the parasites total clearance after drug pressure withdrawal using microscopy assay; details: 4 days treatment, then drug-free culture
Procedure: as §2

[6] = system: B. divergens; experiment: as above; format: cell-based; parameters: key: a positive (+) indicates parasites regrowth; a negative (–) shows the parasites total clearance after drug pressure withdrawal using microscopy assay; details: 4 days treatment, then drug-free culture
Procedure: as §2

[7] = system: B. caballi; experiment: as above; format: cell-based; parameters: key: a positive (+) indicates parasites regrowth; a negative (–) shows the parasites total clearance after drug pressure withdrawal using microscopy assay; details: 4 days treatment, then drug-free culture
Procedure: as §2

[8] = system: hepatitis C virus (HCV); parameters: method as in PMID 25793970; details: antiviral activity against hepatitis C virus (HCV); cited from earlier work
[9] = system: LLC/MK2 monkey kidney epithelial cells; parameters: method as in PMID 21487780; details: cited from earlier work
[10] = system: equine RBCs (T. equi); experiment: Impact of ATR pretreatment of equine RBCs on later parasite proliferation; format: cell-based; details: 400 µM ATR for 3 and 6 h, then T. equi subculture
Procedure: as §1

[11] = system: MDBK cells; experiment: Cytotoxicity assay (CCK-8 cell viability); format: cell-based, bovine; details: for EC50: MDBK cells, 24 h, CCK-8
Procedure: Cultures of human foreskin fibroblast (HFF; HFF-1 ATCC® SCRC-1041™), Madin–Darby bovine kidney (MDBK; ECACC) and mouse embryonic fibroblast (NIH/3T3; ATCC® CRL-1658™) cells were retrieved from −80 °C stock and cultured continuously at 37 °C under atmosphere 5% CO2 in our laboratory. The NIH/3T3 and HFFs cells were maintained in Dulbecco Modified Eagle’s Medium (DMEM; Gibco, Grand Island, NY, USA), while MDBK cell line grown in Minimum Essential Medium Eagle (MEM; Gibco). Each medium was treated with 0.5% penicillin/streptomycin (Gibco), 10% inactivated fetal bovine serum and 2 mM glutamine. Every 72 to 96 h, the medium was replaced, and once 80% confluence was reached, the cell collection was performed by sub-culture protocol. To confirm the absence of mycoplasma contamination, 4,6-diamidino-2-phenylindole dihydrochloride stain (Sigma-Aldrich) was used.
The cell viability test was conducted in a 96-well plate as described elsewhere. Briefly, an aliquot of (100 µL) cells was implanted at a concentration of 5 × 10^4 cells/mL in DMEM or MEM with fetal bovine serum and incubated overnight under atmosphere 5% CO2 at 37 °C for attachment. Using two-fold dilutions, aliquots (10 µL) of drugs were added in triplicate per well to attain final concentrations of 50 to 1000 µM and further incubated for 24 h. The positive control wells containing cells mixed with the medium in 0.4% DMSO, whereas the negative control wells containing culture medium only. After a 24-h incubation, Cell Counting Kits-8 (CCK-8, 10 µL) was added to each well and then plate incubation was conducted for an additional 3 h and a microplate reader was used to assess the absorbance at 450 nm.

SMILES: COC(=O)c1c(C)cc(OC(=O)c2c(C)cc(O)c(C=O)c2O)c(C)c1O [ATR, Atranorin]
- combined treatment efficacy with quinine [1]: slight antagonistic efficacy
- parasite proliferation in ATR-pretreated RBCs versus untreated RBCs [2]: did not show a significant difference
- Viability ([3]; A1 = 0.25× IC50, 24.6 µM): +
- Viability ([3]; A2 = 0.5× IC50, 49.2 µM): +
- Viability ([3]; A3 = 1× IC50, 98.4 µM): +
- Viability ([3]; A4 = 2× IC50, 196.8 µM): completely suppressed and did not revive and –
- Viability ([3]; A5 = 4× IC50, 393.6 µM): –
- Viability ([3]; A6 = 6× IC50, 590.4 µM): –
- Viability ([4]; A1 = 0.25× IC50, 17.8 µM): +
- Viability ([4]; A2 = 0.5× IC50, 35.6 µM): +
- Viability ([4]; A3 = 1× IC50, 71.3 µM): +
- Viability ([4]; A4 = 2× IC50, 142.6 µM): +
- Viability ([4]; A5 = 4× IC50, 285.2 µM): +
- Viability ([4]; A6 = 6× IC50, 427.8 µM): suppressed and –
- Viability ([5]; A1 = 0.25× IC50, 16.1 µM): +
- Viability ([5]; A2 = 0.5× IC50, 32.25 µM): +
- Viability ([5]; A3 = 1× IC50, 64.5 µM): +
- Viability ([5]; A4 = 2× IC50, 129 µM): completely suppressed and did not revive and –
- Viability ([5]; A5 = 4× IC50, 258 µM): –
- Viability ([5]; A6 = 6× IC50, 387 µM): –
- Viability ([6]; A1 = 0.25× IC50, 11.3 µM): +
- Viability ([6]; A2 = 0.5× IC50, 22.6 µM): +
- Viability ([6]; A3 = 1× IC50, 45.2 µM): +
- Viability ([6]; A4 = 2× IC50, 90.4 µM): +
- Viability ([6]; A5 = 4× IC50, 180.8 µM): cleared and did not revive and –
- Viability ([6]; A6 = 6× IC50, 271.2 µM): –
- Viability ([7]; A1 = 0.25× IC50, 11.65 µM): +
- Viability ([7]; A2 = 0.5× IC50, 23.3 µM): +
- Viability ([7]; A3 = 1× IC50, 46.6 µM): +
- Viability ([7]; A4 = 2× IC50, 93.2 µM): completely suppressed and did not revive and –
- Viability ([7]; A5 = 4× IC50, 186.4 µM): –
- Viability ([7]; A6 = 6× IC50, 279.6 µM): –
- IC50 [8]: 22.3 ± 8 µM
- cytotoxic action [9]: mild cytotoxic action
- parasite proliferation in ATR-pretreated RBCs versus untreated RBCs [10]: did not show a significant difference
- EC50 ([11]; Bos taurus): 775 ± 16 µM
- Selective Index MDBK ([11]; EC50 MDBK / IC50 B. bigemina): 12.0
- Selective Index MDBK ([11]; EC50 MDBK / IC50 B. bovis): 7.9
- Selective Index MDBK ([11]; EC50 MDBK / IC50 B. caballi): 16.6
- Selective Index MDBK ([11]; EC50 MDBK / IC50 B. divergens): 17.1
- Selective Index MDBK ([11]; EC50 MDBK / IC50 T. equi): 10.6 and 10.9

SMILES: O=C1C(O)=C([C@H]2CC[C@H](c3ccc(Cl)cc3)CC2)C(=O)c2ccccc21 [AV, atovaquone]
- EC50 ([11]; Bos taurus): > 100 µM
- Selective Index MDBK ([11]; EC50 MDBK / IC50 B. bigemina): ˃142.7
- Selective Index MDBK ([11]; EC50 MDBK / IC50 B. bovis): ˃2564
- Selective Index MDBK ([11]; EC50 MDBK / IC50 B. caballi): ˃980.4
- Selective Index MDBK ([11]; EC50 MDBK / IC50 B. divergens): ˃2631
- Selective Index MDBK ([11]; EC50 MDBK / IC50 T. equi): ˃1052

SMILES: CC(=O)NCC(=O)O.CC(=O)NCC(=O)O.N=C(N)c1ccc(N=NNc2ccc(C(=N)N)cc2)cc1 [DA, diminazene aceturate]
- Selective Index MDBK ([11]; EC50 MDBK / IC50 B. bigemina): ˃147.1
- Selective Index MDBK ([11]; EC50 MDBK / IC50 B. bovis): ˃285.7
- Selective Index MDBK ([11]; EC50 MDBK / IC50 B. caballi): ˃5000
- Selective Index MDBK ([11]; EC50 MDBK / IC50 B. divergens): ˃232.5
- Selective Index MDBK ([11]; EC50 MDBK / IC50 T. equi): ˃140.8
- EC50 [11]: > 100 µM
